Test results taken from patent publication US10729653B2, “Pharmaceutical compositions comprising 2-oxo-1-pyrrolidine derivatives” (UCB BIOPHARMA SRL, priority 2009, dated 2020).

Legend:
[1] = test system: refractory partial onset seizures; settings: adult patients, adjunctive treatment; cited from earlier work
[2] = test system: rat hippocampal slices; assay: epileptiform responses in hippocampal slices (CA3 field potentials); assay type: cell-based, Sprague-Dawley rats; set-up: rate of spontaneous field bursting: dose or concentration left out as unconfirmed; settings: for evoked epileptiform responses (PS1 amplitude, repetitive PSs) in CA3: high-K+/low-Ca2+ fluid (HKLCF) perfusion, fimbrial stimulation
Procedure: The effect of brivaracetam on epileptiform responses induced by high-K+/low-Ca2+ concentrations or by bicuculline was examined in transverse hippocampal slices prepared from Sprague-Dawley rats according to previously reported standard procedures. The epileptiform responses were induced by passing from a normal perfusion of artificial cerebrospinal fluid (ACSF) (K+3 mM; Ca2+2.4 mM) to either high-K+/low-Ca2+ fluid (HKLCF) (K+7.5 mM; Ca2+0.5 mM) or to […] bicuculline methiodide (BMI)-containing ACSF.
Extracellular field potentials (FPs) were recorded in the CA3 area of the slices with 2 M NaCl-filled glass microelectrodes. The evoked FPs were recorded at 10-min intervals in response to fimbrial stimulation with constant current rectangular pulses that elicit a single population spike (PS) of 50-75% of the maximal amplitude when the slice is in ACSF. In the HKLCF model, 2 min of spontaneous activity were also recorded, in the middle of each 10-min interval between the recordings of evoked responses.
Either brivaracetam or levetiracetam was added to the bathing fluid of the slices 20 min before shifting from ACSF to either HKLCF or […] BMI-containing ACSF, and was kept in the perfusion fluid throughout the experiment.

[3] = test system: genetically sound-sensitive male mice; assay: audiogenic seizures in mice; assay type: in vivo; settings: audiogenic seizure-susceptible mice; i.p., brivaracetam 30 min, levetiracetam 60 min pretreatment
Procedure: Audiogenic seizures in mice: Genetically sound-sensitive male mice (16-28 g; n=10 per group), responding with wild running, clonic and tonic convulsions to an acoustic stimulation, were used. Audiogenic seizures were induced by an acoustic stimulus (90 dB, 10-20 kHz) applied for 30 s. The mice were pretreated with either saline, brivaracetam (i.p., 30 min) or levetiracetam (i.p., 60 min), and the proportion of mice protected against clonic convulsions was used as the end point to assess anticonvulsant activity.

[4] = test system: fully amygdala-kindled rats; assay: fully amygdala-kindled rats; assay type: in vivo, rat; settings: for dose from which a significant suppression in motor-seizure severity is induced: fully amygdala-kindled rats
[5] = test system: rat hippocampal slices; settings: background statement; cited from earlier work
[6] = test system: tonic hindlimb extension induced by a maximal electroshock in mice; assay: maximal electroshock in mice; assay type: in vivo; settings: i.p. 30 min before seizure induction; higher ED50 values than in audiogenic mice
[7] = test system: post-herpetic neuralgia; settings: patients; cited from earlier work
[8] = test system: pentylenetetrazol-induced clonic convulsions in mice; assay: chemically induced seizures in mice (pentylenetetrazol); assay type: in vivo; settings: i.p. 30 min before seizure induction; higher ED50 values than in audiogenic mice
Procedure: The dose was selected based on dose-effect curves in saline-treated animals as the convulsive dose inducing clonic convulsions of all four extremities in 97% of the animals. Immediately after administration of the chemoconvulsant, the mice were placed individually in small plastic cages (25 13 8 cm) and observed for the presence of clonic convulsions in all four extremities, for 60 min. The occurrence of tonic convulsions (hindlimb extension) and mortality was also recorded during this interval. The proportion of mice protected against clonic convulsions was calculated and used as the end point for anticonvulsant activity.

[9] = test system: corneal kindling of mice; assay: corneal kindling of mice; assay type: in vivo
[10] = test system: GAERS rats; assay: spontaneous SWDs in GAERS rats; assay type: in vivo, rat

Row | Structure (SMILES) | efficacy in the treatment of epilepsy [1] | evoked epileptiform responses (PS1 amplitude, repetitive PSs) in CA3 [2] | protection against the expression of clonic convulsions [3] | dose from which a significant suppression in motor-seizure severity is induced [4] [mg/kg] | after-discharge duration ([4]; up to 1700 mg kg-1) | epileptiform responses induced by high-K+/low-Ca2+ concentrations and by bicuculline [5] | protection against tonic hindlimb extension induced by a maximal electroshock [6] | rate of spontaneous field bursting ([2]; HKLCF) | efficacy in post-herpetic neuralgia [7] | protection against clonic convulsions induced by pentylenetetrazol [8] | incidence of generalized motor seizures after termination of treatment ([9]; continued corneal stimulations, group previously treated with the highest dose) | incidence of generalized motor seizures ([9]; pretreatment during corneal kindling, levetiracetam at higher doses) | after-discharge duration ([4]; highest dose tested (212.3 mg kg-1)) | dose from which spontaneous SWDs are significantly suppressed ([10]; GAERS rats) [mg/kg] | inhibition of spontaneous SWDs ([10]; highest dose tested (67.9 mg kg-1))
1 | CC[C@@H](C(N)=O)N1C[C@H](C=C(F)F)CC1=O [Seletracetam, (2S)-2-[(4S)-4-(2,2-difluorovinyl)-2-oxo-pyrrolidin-1-yl]butanamide] | effective in the treatment of epilepsy |  |  |  |  |  |  |  |  |  |  |  |  |  | 
2 | CC[C@@H](C(N)=O)N1CCCC1=O [Levetiracetam] |  | reduced these epileptiform responses | protected | ≥ 170 | inactive | reduces epileptiform responses |  |  |  |  |  |  |  |  | 
3 | CCC[C@@H]1CC(=O)N([C@@H](CC)C(N)=O)C1 [Brivaracetam, (2S)-2-[(4R)-2-oxo-4-propyl-pyrrolidin-1-yl]butanamide] | effective in the treatment of epilepsy | reduced these epileptiform responses | protected | ≥ 21.2 |  |  | protected | reduced the rate of this spontaneous bursting | effective in the treatment of patients with post-herpetic neuralgia | protected | persistent reduction in the incidence of generalized motor seizures | significant reduction in the incidence of generalized motor seizures | significantly reduced the after-discharge duration | ≥ 2.1 | complete inhibition
